Measured values taken from patent EP0065513B1, “ANTIMYCOTIC SYNERGISTIC PHARMACEUTICAL COMPOSITIONS AND PROCESS FOR THE PREPARATION THEREOF” (CHINOIN Gyogyszer és Vegyészeti Termékek Gyára RT., priority 1980, dated 1982).

Experiments:
Candida albicans = assay: In vitro growth inhibition test in liquid nutrient medium; type: cell-based
Protocol: (§1) Candida albicans and Trichomonas vaginalis strains are cultured in a liquid nutrient medium. Incubation is carried out at 37°C for 48 hours. Each nutrient medium (10 ml) is inoculated with 1000 germs per ml. The number of germs is determined in a Burker chamber. Dilution series are prepared from the stock inoculum by using a physiological sodium chloride solution. To the mixture of the nutrient medium and 0.5 ml a physiological sodium chloride solution 2-methyl-1,4-naphthoquinone, nystatin and mixtures thereof are added.
(§2) The minimal inhibitory concentration of nystatin is determined in the manner disclosed above.
(§3) 1.25 mg/10 ml of 2-methyl-1,4-naphthoquinone is added to an amount of nystatin being the one fiftieth (1/50) part of the minimal inhibitory concentration. Complete inhibition of the growth of Candida albicans and Trichomonas vaginalis was observed.

Trichomonas vaginalis = assay: as above; type: cell-based
Protocol: as §1, §2, §3

[1] = system: vulvovaginitis candidomycetica; assay: In vivo test: treatment of patients with suppositories; details: patients with vulvovaginitis candidomycetica treated with suppositories; number of patients 35
Protocol: Patients suffering of vulvovaginitis candidomycetica are treated with suppositories according to Example 1. As control suppositories containing no 2-methyl-1,4-naphthoquinone-sodium sulfite adduct but nystatin only are used. Number of patients 35.

[2] = concentration smaller than 5 mg/10 ml
[3] = liquid nutrient medium 10 ml, 1000 germs per ml, 37°C, 48 hours

| SMILES | activity at a smaller concentration than the minimal inhibitory concentration (Candida albicans; [2]) | minimal inhibitory concentration (Candida albicans; [3]) [mg/10 ml] | activity at a smaller concentration than the minimal inhibitory concentration (Trichomonas vaginalis; [2]) | minimal inhibitory concentration (Trichomonas vaginalis; [3]) [mg/10 ml] | Recovery, in % of the cases [1] [%] |
| --- | --- | --- | --- | --- | --- |
| CC1=CC(=O)c2ccccc2C1=O [2-methyl-1,4-naphthoquinone] | completely inactive | 5 | completely inactive | 5 | – |
| C[C@@H]1[C@H](O)[C@@H](C)/C=C/C=C/CC/C=C/C=C/C=C/C=C/C(O[C@H]2O[C@H](C)[C@@H](O)[C@H](N)[C@@H]2O)CC2O[C@](O)(CC(O)C(O)CCC(O)CC(O)CC(O)CC(=O)O[C@H]1C)CC(O)C2C(=O)O (some centres unmarked) [Nystatin] | – | – | – | – | 66 |
